From patent publication US12275734B1, “Pleuromutilin onium salt derivative containing a 3H-imidazo[4,5-c]pyridine side chain, and a preparation method and application thereof” (SHAANXI UNIVERSITY OF SCIENCE AND TECHNOLOGY, priority 2024, dated 2025)
Values after ≈ are worked out from the molar mass of the structure shown. Like-named read-outs stand apart in the source and are kept apart here.

What was measured:
Format in all cases: cell-based
[1] = system: M. galliscepticum, NCTC10115; test: Anti-mycoplasma MIC; settings: read-out: Antimycoplasma activity (MIC) MG-R^d
Procedure: (§1) The antimycoplasma activity was quantified using the […]. Retapamulin was used as a positive control to test the minimum inhibitory concentration of 3H-imidazo[4,5-C]pyridine pleuromutilin onium salt derivatives.
(§2) (1) Preparation of KM2 medium: Weigh 38.9 g of KM2 medium, add it to 800 mL of distilled water, boil to dissolve, sterilize under high pressure at 115° C. for 20 min, and set aside.
(§3) (2) Preparation of bacterial stock solution: Take 0.5 mL of Mhp-J^a, Mhp-LH^b, Mhr-BTS-7^c, MG-R^d, MS-WVU1853^e, MP-M129^f, CP-AR-39^g, CP-CWL-029^h, CP-TW-183^i, MH-PG-21^j, MG-G37^k cultured to the logarithmic phase and transfer it to 4.5 mL of KM2 liquid culture medium. When the culture medium turns yellow, divide each bacterium into 0.5 mL per tube and store it at −70° C. as bacterial stock solution.
(§4) (3) Determination of bacterial titer (color change unit, CCU): Take out the bacterial stock solution stored at −70° C., melt and balance to room temperature, add 0.18 mL KM2 medium to each well of the middle 4 rows of the 96-well plate (i.e. 4 parallels), take 0.02 mL and add it to the first column, dilute 10 times to 10^−11, and set up a negative control containing only KM2 medium (12th column). After sealing, put it in a 37° C. incubator and observe the results every day. The highest dilution at which the color of the medium changes is the CCU/mL of the strain.
(§5) Take an appropriate amount of seed bacterial solution and dilute it to 10^4 CCU/mL in turn according to its titer. Add drugs of each dilution in a 96-well plate in turn, and then add an equal amount of diluted bacterial solution. Set 200 μL of diluted mycoplasma bacterial solution as a positive control, 200 μL of KM2 liquid culture medium as a negative control, and set a solvent control group (10 μL of drug solvent+190 μL of mycoplasma bacterial solution). Each experiment is set up in 3 parallels. After all culture plates are sealed, they are cultured at 37° C., observed daily, and the final MIC value is recorded.

[2] = system: M. hyorhinis BTS-7, NCTC10130; test: Anti-mycoplasma MIC; settings: Mesomycoplasma hyorhinis
Procedure: as §1, §2, §3, §4, §5

[3] = system: M. genitalium G37, ATCC33530; test: Anti-mycoplasma MIC; settings: Mycoplasmoides genitalium
Procedure: as §1, §2, §3, §4, §5

[4] = system: C. pneumoniae TW183, VR-2282; test: Anti-mycoplasma MIC; settings: Chlamydia pneumoniae, read-out: Antimycoplasma activity (MIC) CP-TW-183^i
Procedure: as §1, §2, §3, §4, §5

[5] = system: M. hominis PG-21, ATCC23114; test: Anti-mycoplasma MIC; settings: Metamycoplasma hominis
Procedure: as §1, §2, §3, §4, §5

[6] = system: M. pneumoniae M129, ATCC29342; test: Anti-mycoplasma MIC; settings: Mycoplasmoides pneumoniae
Procedure: as §1, §2, §3, §4, §5

[7] = system: multidrug-resistant Pseudomonas aeruginosa-126; test: MIC, clinical isolates
Procedure: (§6) The minimum inhibitory concentration of 3H-imidazo[4,5-C]pyridine pleuromutilin onium salt derivatives against the tested pathogenic microorganisms were determined by broth microdilution method, with valnemulin and retapamulin as positive controls.
(§7) The experimental strains included resistant Gram-positive bacteria: Methicillin-resistant S. aureus ATCC 33591; Methicillin-resistant S. aureus ATCC 43300; S. aureus ATCC 29213; Methicillin-resistant S. epidermidis ATCC 51625. Resistant Gram-negative bacteria: A. baumannii ATCC 19606; S. enterica ATCC14028; E. coli ATCC 25922; E. coli CMCC 44103. 9 clinically isolated resistant strains: MRSA-171; MRSA-575; MRSA-206; MRSA-222; MRSA-596; VRE-80; MDR-PA-126; MDR-KP-893; CR-AB-882.
(§8) (1) Preparation of MHB medium: Weigh 18.0 g of MHB medium pre-made powder, add it to 1 L of distilled water, heat and boil until completely dissolved, divide it into conical bottles, sterilize it by high pressure at 121° C. for 15 minutes, and set aside.
(§9) (2) Cultivate the experimental strain to the logarithmic growth phase: Under sterile conditions, inoculate the experimental strain into fresh MHB medium and culture it in a 37° C. constant temperature and humidity incubator for 16-24 hours. Adjust the bacterial solution concentration to 1.5×10^8 CFU/mL and then dilute it 200 times for later use.
(§10) (3) Preparation of storage solution: Weigh the sample to be tested, dissolve it in 1% DMSO solution, and prepare a storage solution with a concentration of 2560 μg/mL; weigh the positive control, dissolve it in sterile distilled water, and prepare a storage solution with a concentration of 2560 μg/mL.
(§11) (4) Preparation of bacterial suspension: Under sterile conditions, the experimental strain cultured to the logarithmic growth phase was calibrated to a 0.5 McFarland unit turbidity standard using MHB medium and then diluted at a ratio of 1:200 to prepare a bacterial suspension with a concentration of 5×10^5 CFU/mL for later use.
(§12) (5) Determination of MIC by two-fold microdilution method: Take a sterile 96-well plate, add 10 μL of the test compound at a concentration of 2560 μg/mL, and perform serial dilutions by the two-fold dilution method. At the same time, set up a negative control group without drug. Then add 190 μL of diluted bacterial solution to each well, so that the final bacterial solution concentration in each well is 5×10^5 CFU/mL, and incubate in a 37° C. constant temperature and humidity chamber for 24 hours.

[8] = system: carbapenem-resistant Acinetobacter baumannii-882; test: MIC, clinical isolates
Procedure: as §6, §7, §8, §9, §10, §11, §12

[9] = system: multidrug-resistant Klebsiella pneumoniae-893; test: MIC, clinical isolates; settings: clinical isolate MDR-KP-893
Procedure: as §6, §7, §8, §9, §10, §11, §12

[10] = system: vancomycin-resistant Enterococcus-80; test: MIC, clinical isolates
Procedure: as §6, §7, §8, §9, §10, §11, §12

[11] = system: methicillin-resistant Staphylococcus aureus-206; test: MIC, clinical isolates
Procedure: as §6, §7, §8, §9, §10, §11, §12

[12] = system: methicillin-resistant Staphylococcus aureus-171; test: MIC, clinical isolates
Procedure: as §6, §7, §8, §9, §10, §11, §12

## C=C[C@]1(C)C[C@@H](OC(=O)CS[C@@H]2C[C@H]3CC[C@@H](C2)N3C)[C@]2(C)[C@H](C)CC[C@]3(CCC(=O)[C@H]32)[C@@H](C)[C@@H]1O [Retapamulin, reference compound]
[1]
  MIC: 0.125 µg/mL (≈ 0.241 µM)
[2]; NCTC10130, read-out: Antimycoplasma activity (MIC) Mhr-BTS-7^c
  MIC: 0.03 µg/mL (≈ 0.0579 µM)
[3]; ATCC33530, read-out: Antimycoplasma activity (MIC) MG-G37^k
  MIC: 0.03 µg/mL (≈ 0.0579 µM)
[4]
  MIC: 0.03 µg/mL (≈ 0.0579 µM)
[5]; ATCC23114, read-out: Antimycoplasma activity (MIC) MH-PG-21^j
  MIC: 0.25 µg/mL (≈ 0.483 µM)
[6]; ATCC29342, read-out: Antimycoplasma activity (MIC) MP-M129^f
  MIC: 0.015 µg/mL (≈ 0.029 µM)
[7]; read-out: Antibacterial activity (MIC) MDR-PA^h
  MIC: 64 µg/mL (≈ 124 µM)
[8]; read-out: Antibacterial activity (MIC) CR-AB^j
  MIC: 64 µg/mL (≈ 124 µM)
[9]
  Antibacterial activity (MIC) MDR-KP^i: 128 µg/mL
[10]; VRE, read-out: Antibacterial activity (MIC) VRE^g
  MIC: > 128 µg/mL
[11]; MRSA, read-out: Antibacterial activity (MIC) MRSA^d
  MIC: 64 µg/mL (≈ 124 µM)
[12]; MRSA, read-out: Antibacterial activity (MIC) MRSA^b
  MIC: 128 µg/mL (≈ 247 µM)

## C=C[C@]1(C)C[C@@H](OC(=O)CSc2nc3cc[n+](Cc4ccc(C)cc4)cc3[nH]2)[C@]2(C)[C@H](C)CC[C@]3(CCC(=O)[C@H]32)[C@@H](C)[C@@H]1O [Compound i, 5-(4-methylbenzyl)-2-((2-(((3aR,4R,5R,7S,8S,9R,9aS,12R)-8-hydroxy-4,7,9,12-tetramethyl-3-oxo-7-vinyldecahydro-4,9a-propancyclopenta[8]cyclo-5-yl)oxy)-2-oxoethyl)thio)-3H-imidazo[4,5-C]pyridine-5-ium]
[1]; M. galliscepticum
  MIC: 0.04 µg/mL
[2]; NCTC10130, M. hyorhinis BTS-7, read-out: Antimycoplasma activity (MIC) Mhr-BTS-7^c
  MIC: 0.03 µg/mL
[3]; ATCC33530, M. genitalium G37, read-out: Antimycoplasma activity (MIC) MG-G37^k
  MIC: 0.03 µg/mL
[4]; C. pneumoniae TW183
  MIC: 0.01 µg/mL
[5]; ATCC23114, M. hominis PG-21, read-out: Antimycoplasma activity (MIC) MH-PG-21^j
  MIC: 0.015 µg/mL
[6]; ATCC29342, M. pneumoniae M129, read-out: Antimycoplasma activity (MIC) MP-M129^f
  MIC: 0.008 µg/mL
[7]; clinical isolate MDR-PA-126, read-out: Antibacterial activity (MIC) MDR-PA^h
  MIC: 4 µg/mL
[8]; clinical isolate CR-AB-882, read-out: Antibacterial activity (MIC) CR-AB^j
  MIC: 4 µg/mL
[9]
  Antibacterial activity (MIC) MDR-KP^i: 2 µg/mL
[10]; clinical isolate VRE-80, read-out: Antibacterial activity (MIC) VRE^g
  MIC: 4 µg/mL
[11]; clinical isolate MRSA-206, read-out: Antibacterial activity (MIC) MRSA^d
  MIC: 1 µg/mL
[12]; clinical isolate MRSA-171, read-out: Antibacterial activity (MIC) MRSA^b
  MIC: 4 µg/mL
